From US20060154235A1, “Human hepatocyte-like cells and uses thereof” (Takahiro Ochiya, priority 2005, published 2006)

Test system: CYP1A1
Test: P450-GLO activity assay, CYP1A1 induction in hMSC-derived hepatocytes
Details: inducer for 2 days

In the case of Cc1ccc2cc3c(ccc4ccccc43)c3c2c1CC3 [3-methylcholanthrene], the “CYP1A1 activity after inducer treatment” value is reported as “induced”.
